US7666393B2, “Methods for assessing antiangiogenic agents” (Children's Medical Center Corporation, priority 2001, dated 2010)

How the values were obtained:
CAM vascularization = conditions: in vivo; cited from earlier work
EPC [1] = assay: VEGF-induced mobilization of EPC in mice (PBMNC colonies from peripheral blood); format: in vivo
Experimental: PBMNC from 1 ml of peripheral mouse blood were plated in medium containing bFGF and VEGF (FIG. 2A). […] Similar results were obtained with peripheral blood from mice, which were injected with microencapsulated cells producing endostatin (approximately 0.5×10^6 cells per mice) (Joki et al., 2001) (FIG. 2D). In order to elevate the number of EPC in the blood, the mice received injection of 0.5×10^6 cells producing VEGF, that were micro-encapsulated similar to the endostatin producing cells (FIGS. 2B-C).
PBMNC from VEGF injected mice were further analyzed by immunostaining in order to confirm their identity. Blood-derived cells were stained positively for VEGF-R2 (Flk-1), CD-31, BS-1 (a lectin specifically expressed on mouse EC) and for von-Wilerband factor (F.VIII). Only a few cells were stained positively for CD-14, a marker for macrophages. […] Furthermore, this in vivo effect of endostatin can be seen only if the starting number of EPC in the blood is high as a result of the VEGF treatment.

[2] = test system: Human peripheral blood mononuclear cells (PBMNC); assay: In vitro formation of colonies from human peripheral blood mononuclear cells (EPC differentiation assay); format: cell-based; conditions: medium with bFGF and VEGF, 6 days culture after addition
Experimental: Human peripheral blood mononuclear cells (PBMNC) were purified over Ficoll gradient and seeded onto non-treated plastic dish for 24 hr. Non. adherent cells were, transferred to a gelatin coated 48 well dish in medium containing basic fibroblast growth factor (BFGF) and VEGF. Angiostatin and endostatin were added to the medium 24 hours later and cells were cultured for additional 6 days. At the end of the experiment the colonies were fixed with ethanol, stained with methyl-methylene blue and counted (FIGS. 1A-C). […] There was no difference in the effects of angiostatin between the two concentrations used. […] Taken together, it appears that angiostatin and endostatin block the differentiation of EC from their circulating progenitors.

EPC [3] = assay: Tumor-induced mobilization of EPC in SCID mice bearing HS-VF tumors; format: in vivo; conditions: 7 days
Experimental: Many tumors secrete high levels of VEGF that can promote differentiation and mobilization of EPC. To test the effects of endostatin on tumor-induced mobilization of EPC, SCID mice (5 per group) were first injected subcutaneously with human pancreatic tumor cells (HS-VF cell, 2×10^6 cells/mouse) overexpressing VEGF. Eight days later half of the mice were implanted with “Alzet” osmotic pumps releasing murine endostatin (8-12 mg/kg/day) and the other half with pumps releasing saline. SCID mice that were not injected with tumor cells or pumps (normal SCID mice) served as a control to measure the number of EPC. After seven days, mice were sacrificed and blood samples were collected.
PBMNC were purified over “Ficoll” gradient and cells corresponding to 0.5 ml of blood were placed in a “Cytospin” tube. The cells were loaded onto glass slides, fixed and immunostained with MECA-32 antibodies, that specifically detect murine EC. The staining was developed with FITC-labeled (green) secondary antibodies and cell nuclei were stained with DAPI (blue). The proportion of MECA-32 positive cells from total PBMNC was calculated and shown in the graph of FIG. 4A.
Control mice had 0.29% MECA-32 positive cells in the PBMNC preparation. […]

EPC [4] = assay: EPC in peripheral blood of cancer patients undergoing endostatin treatment (P1H12-positive cells); format: in vivo, human; conditions: for percentage of EPC: about 240 mg/m^3 daily
Experimental: Recombinant human Endostatin (rhEndostatin, Endostatin™ EntreMed, Inc, Rockville, Md.) is under investigation in clinical Phase I trials in patients with advanced, refractory cancers. Twenty eight patients, age ranging from 28 to 72 years old with various types of cancer such as breast, colorectal and soft tissue sarcoma, participated in a phase I clinical trial at the Dana Farber Cancer Institute in Boston. We obtained blood samples from 7 patients that were treated with endostatin. The response of EPC to rhEndostatin differed between patients in accordance with differing clinical courses. The first group consisted of 4 patients with slowly progressive, stable or decreasing cancers that were followed with samples for 130-250 days (FIG. 6A). The second group consisted of patients with faster progressing cancer unaffected by rhEndostatin administration. This group was followed during 30 days of endostatin treatment (FIG. 6B). PBMNC were purified from the blood over “Ficoll” gradient and cells corresponding to 0.5 or 1 ml of blood were placed in a “Cytospin” tube. The cells were loaded onto glass slides, fixed and immuno-stained with FITC-conjugated P1H12 antibodies. Cell nuclei were stained with DAPI. The number of P1H12-positive cells was calculated as percentage of total PBMNC. EPC percentage varied among patients and was between 1.8-3.5%. […] Patients from the first group were initially administered with daily intravenous injections of 60 mg/m^3 endostatin. […] The administration of endostatin was later changed to continuous infusion (60 mg/m^3/day).
The second group of patients were at the beginning of endostatin treatment (daily IVB injections of about to 240 mg/m^3). The initial amount of EPC in this group varied between 0.4-1.6%. […] In these patients only 2-3 measurements of EPC were available because of rapid disease progression. […] On the other hand, minor response or stable disease progression upon endostatin administration was associated with reduction in the number EPC in peripheral blood, whereas an increase in EPC was associated with rapid disease progression.

In the case of `CO[C@@H]1[C@H](OC(=O)NC(=O)CCl)CC[C@]2(CO2)[C@H]1[C@@]1(C)O[C@@H]1CC=C(C)C` [TNP-470, reference compound], the CAM vascularization (CAM vascularization) is given as “greatly inhibit”.

For “vascular endothelial growth factor [VEGF, reference compound]”, the “colonies from PBMNC of peripheral mouse blood” value (EPC [1]; mice injected with 0.5×10^6 microencapsulated cells producing VEGF) was “Large number of colonies”.

For angiostatin, the “formation of PBMNC colonies” value ([2]; 2 μg/ml) is listed as “completely blocked”, the “formation of PBMNC colonies” value ([2]; 10 μg/ml) is listed as “completely blocked” and the CAM vascularization (CAM vascularization) is listed as “greatly inhibit”.

In the case of endostatin, the “formation of PBMNC colonies” value ([2]; 2 μg/ml) is reported as “the number of colonies grew but the colonies were small and contained small round cells”, the “formation of PBMNC colonies” value ([2]; 10 μg/ml) is reported as “significantly lower than the control experiment” and the “colonies from PBMNC of 1 ml peripheral mouse blood” value (EPC [1]; mice injected with microencapsulated cells producing endostatin only (approx. 0.5×10^6 cells per mouse), 7 days in culture) is reported as “no viable cell-containing colonies could be detected”. The “colonies from PBMNC of peripheral mouse blood” value (EPC [1]; mice received VEGF producing cells together with endostatin producing cells (0.5×10^6 alginate encapsulated cells of each)) was “only a few, small and round cell-containing colonies”, the “proportion of MECA-32 positive cells from total PBMNC” value (EPC [3]; Alzet pumps releasing murine endostatin 8-12 mg/kg/day, saline pumps approx. 2.5%, control mice 0.29%) was 0.67% and the “gated Flk-1 positive cells in the peripheral blood (FACS)” value (EPC [3]; pumps releasing murine endostatin 8-12 mg/kg/day, saline 0.625+/−0.19%, normal mice 0.22+/−0.04%) was 0.305+/−0.05%. For the same molecule, the “number of EPC (P1H12-positive cells, percentage of total PBMNC)” value (EPC [4]; one patient of the first group, continuous infusion 60 mg/m^3/day, 130 days) was “not increased”, the “percentage of EPC” value (EPC [4]; patient 13, faster progressing cancer, increased from 0.4% during 15 days of administration) was 3.8% and the “percentage of EPC” value (EPC [4]; patient #11, faster progressing cancer, increased from 1.6% during 30 days of administration) was 5.3%. The EPC percentage (EPC [4]; patient #12, faster progressing cancer, daily IVB injections of about 240 mg/m^3, first 15 days) was “did not change significantly”, the “number of EPC (P1H12-positive cells, percentage of total PBMNC)” value (EPC [4]; patients #1, #2 and #3, continuous infusion 60 mg/m^3/day) was “further lowered” and the “number of EPC (P1H12-positive cells, percentage of total PBMNC)” value (EPC [4]; patients #2 and #3, slowly progressing cancer, daily intravenous injections of 60 mg/m^3) was “gradually decreased”. For the same molecule, the CAM vascularization (CAM vascularization) was “greatly inhibit”.
